Reference: US9169254B2, “Spiroimidazolone derivative” (Chugai Seiyaku Kabushiki Kaisha, priority 2009, dated 2015)

Each compound was assayed against T1, human PTH1 receptor (Homo sapiens, UniProt Q03431) (assay: In vitro cAMP signal activity in HKRK-B7 cells (LLC-PK1 cells overexpressing the human PTH1 receptor)). Settings: HKRK-B7 cells; compound at 1×10^−3 M; cAMP produced as percentage of that produced by hPTH(1-34) at 100 nM.
T1 sequence (Q03431 27-593): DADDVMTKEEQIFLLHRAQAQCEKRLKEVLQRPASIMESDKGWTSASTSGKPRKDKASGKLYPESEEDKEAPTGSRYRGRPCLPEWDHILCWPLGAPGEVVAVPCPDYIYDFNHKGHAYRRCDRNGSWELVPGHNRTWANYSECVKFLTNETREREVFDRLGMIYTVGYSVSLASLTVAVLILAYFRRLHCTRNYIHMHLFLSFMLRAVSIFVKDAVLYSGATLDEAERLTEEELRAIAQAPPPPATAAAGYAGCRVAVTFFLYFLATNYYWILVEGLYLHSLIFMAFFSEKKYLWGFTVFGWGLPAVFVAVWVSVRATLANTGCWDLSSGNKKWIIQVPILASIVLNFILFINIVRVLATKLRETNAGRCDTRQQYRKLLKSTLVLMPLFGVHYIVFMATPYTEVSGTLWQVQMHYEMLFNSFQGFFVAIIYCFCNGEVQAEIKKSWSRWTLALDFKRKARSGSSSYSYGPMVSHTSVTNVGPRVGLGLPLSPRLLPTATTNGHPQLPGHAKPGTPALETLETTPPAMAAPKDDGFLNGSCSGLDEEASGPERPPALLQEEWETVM
Assay type: cell-based

SMILES	cAMP production activity (%)
CC(=O)Nc1ccc(/C=C/S(=O)(=O)N2CCC3(CC2)N=C(C2CCC(C)CC2)NC3=O)c(OC(C)C)c1 (centres unmarked) [Compound 506, N-(3-isopropoxy-4-{(E)-2-[2-(4-methyl-cyclohexyl)-4-oxo-1,3,8-triaza-spiro[4.5]dec-1-ene-8-sulfonyl]-vinyl}-phenyl)-acetamide]	83
Cc1cc2ccc1CCS(=O)(=O)N1CCC3(CC1)N=C(NC3=O)c1ccc(C(F)(F)F)c(c1)OCCCC=COCCN(C)C2=O [Compound 1431]	15
Cc1cc(C(=O)N2CCC(CO)CC2)cc(C)c1/C=C/S(=O)(=O)N1CCC2(CC1)N=C(c1cccc(OC(F)(F)F)c1)NC2=O [Compound 960, 8-{(E)-2-[4-(4-hydroxymethyl-piperidine-1-carbonyl)-2,6-dimethyl-phenyl]-ethenesulfonyl}-2-(3-trifluoromethoxy-phenyl)-1,3,8-triaza-spiro[4.5]dec-1-en-4-one]	84
Cc1cc(N(CCOCCO)C(N)=O)cc(C)c1CCS(=O)(=O)N1CCC2(CC1)N=C(C1CCC(CCC(F)(F)F)CC1)NC2=O (centres unmarked) [Compound 826, 1-[3,5-dimethyl-4-(2-{4-oxo-2-[4-(3,3,3-trifluoro-propyl)-cyclohexyl]-1,3,8-triaza-spiro[4.5]dec-1-ene-8-sulfonyl}-ethyl)-phenyl]-1-[2-(2-hydroxy-ethoxy)-ethyl]-urea]	90
Cc1cc(C(=O)N2CCC(O)(CF)CC2)cc(C)c1/C=C/S(=O)(=O)N1CCC2(CC1)N=C(c1ccc(C(F)(F)F)c(Cl)c1)NC2=O [Compound 1241, 2-(3-chloro-4-trifluoromethyl-phenyl)-8-{(E)-2-[4-(4-fluoromethyl-4-hydroxy-piperidine-1-carbonyl)-2,6-dimethyl-phenyl]-ethenesulfonyl}-1,3,8-triaza-spiro[4.5]dec-1-en-4-one]	101
NCC(=O)N1CCCC(C2=NC3(CCN(S(=O)(=O)c4cccc(Cl)c4)CC3)C(=O)N2)C1 (centres unmarked) [Compound 442, 2-[1-(2-Amino-acetyl)-piperidin-3-yl]-8-(3-chloro-benzenesulfonyl)-1,3,8-triaza-spiro[4.5]dec-1-en-4-one]	2.5

The next lines start with the values.

cAMP production activity (%)	SMILES
92	CNc1cc(C)c(/C=C/S(=O)(=O)N2CCC3(CC2)N=C(c2cccc(SC(F)(F)F)c2)NC3=O)c(C)c1 [Compound 1016, 8-[(E)-2-(2,6-Dimethyl-4-methylamino-phenyl)-ethenesulfonyl]-2-(3-trifluoromethylsulfanyl-phenyl)-1,3,8-triaza-spiro[4.5]dec-1-en-4-one]
85	CC(=O)Nc1ccc(CCS(=O)(=O)N2CCC3(CC2)N=C(c2cccc(C#N)c2)NC3=O)c(C)c1 [Compound 907, N-(4-{2-[2-(3-cyano-phenyl)-4-oxo-1,3,8-triaza-spiro[4.5]dec-1-ene-8-sulfonyl]-ethyl}-3-methyl-phenyl)-acetamide]
68	COC(=O)c1cccc(C2=NC3(CCN(S(=O)(=O)CCc4ccc(C(=O)N(C)C)cc4C)CC3)C(=O)N2)c1 [Compound 174, 3-{8-[2-(4-Dimethylcarbamoyl-2-methyl-phenyl)-ethanesulfonyl]-4-oxo-1,3,8-triaza-spiro[4.5]dec-1-en-2-yl}-benzoic acid methyl ester]
90	Cc1cc(C(=O)N(C)C)ccc1CCS(=O)(=O)N1CCC2(CC1)N=C(c1cccc(OC(F)(F)F)c1)N/C2=N\O [Compound 900, 4-{2-[4-[(Z)-hydroxyimino]-2-(3-trifluoromethoxy-phenyl)-1,3,8-triaza-spiro[4.5]dec-1-ene-8-sulfonyl]-ethyl}-3,N,N-trimethyl-benzamide]
44	Cc1cc(N(C)C(N)=O)cc(C)c1/C=C/S(=O)(=O)N1CCC2(CC1)N=C(c1cccc(-c3cccc(-c4ccccc4)c3)c1)NC2=O [Compound 1157, 1-{3,5-Dimethyl-4-[(E)-2-(4-oxo-2-[1,1′;3′,1″]terphenyl-3-yl-1,3,8-triaza-spiro[4.5]dec-1-ene-8-sulfonyl)-vinyl]-phenyl}-1-methyl-urea]
